# Results published in patent publication US9944656B2, “Benzothiazole macrocycles as inhibitors of human immunodeficiency virus replication” (priority 2014, dated 2018).
# pEC50: −log10 of the molar value.
# Tested on: recombinant NL-RLuc virus (HIV, NL4-3 derived) in MT-2 cells
# Assay: Inhibition of HIV replication (NL-RLuc virus in MT-2 cells, luciferase readout)
# Format: cell-based
# Details: 5 days of incubation, 10% FBS
# Description: Inhibition of HIV Replication.
# A recombinant NL-RLuc proviral clone was constructed in which a section of the nef gene from NL4-3 was replaced with the Renilla Luciferase gene. This virus is fully infectious and can undergo multiple cycles of replication in cell culture. In addition, the luciferous reporter provides a simple and easy method for quantitating the extent of virus growth and consequently, the antiviral activity of test compounds. The plasmid pNLRLuc contains the proviral NL-Rluc DNA cloned into pUC 18 at the PvuII site. The NL-RLuc virus was prepared by transfection of 293T cells with the plasmid pNLRLuc. Transfections were performed using the LipofectAMINE PLUS kit from Invitrogen (Carlsbad, Calif.) according to the manufacturer and the virus generated was titered in MT-2 cells. For susceptibility analyses, the titrated virus was used to infect MT-2 cells in the presence of compound, and after 5 days of incubation, cells were processed and quantitated for virus growth by the amount of expressed luciferase. […] Luciferase was quantitated using the Dual Luciferase kit from Promega (Madison, Wis.). Susceptibility of viruses to compounds was determined by incubation in the presence of serial dilutions of the compound. […]
row,SMILES,pEC50
1,"Cc1ccc2c(c1)-c1cccc(c1)-c1nc3cc(C)c([C@H](OC(C)(C)C)C(=O)O)c(c3s1)-c1ccc3c(c1)C(CCCC[C@H](C)O2)CCO3 (single isomer, unassigned) [Example 1]",5.25
2,"Cc1ccc2c(c1)-c1cccc(c1)-c1nc3cc(C)c([C@H](OC(C)(C)C)C(=O)O)c(c3s1)-c1ccc3c(c1)C(CCCC[C@H](C)O2)CCO3 (single isomer, unassigned) [Example 2]",6.46
